Data on nine molecules can be found in patent US9617230B2, “Creatine prodrugs, compositions and methods of use thereof” (Farmington Pharma Development, priority 2014, dated 2017).

Data set [1] in a line: Metabolic stability in mouse liver microsomal incubations. Type of data set: in vitro ADME. The method, then: (§1) Incubations are conducted at 37° C. in the presence or absence of NADPH regenerating system to indicate whether metabolism proceeds via an NADPH requiring enzyme (i.e. P450s, FMOs, NADPH-P450 reductase or other oxidase enzymes). Duplicate samples of prodrugs and controls are prepared and analyzed. Stock solutions of prodrugs are prepared in DMSO (10 mM) and diluted to 0.05 mM in a mixture of 25% MeOH/pH 7.4 phosphate buffer to prepare spiking solutions. The prodrug spiking solutions are aliquoted (10 μL) into 96-well plates. Pre-warmed (37° C.) microsome solution (80 μL) is added to the wells designated for 5, 15, 30, 45 and 60 min time points and incubated for 10 min before initiating the reaction with 10 μL of NADPH regenerating solution. For t=0 min the quench solution (300 μL acetonitrile) is added directly to the prodrug containing well followed by the microsome solution and NADPH solution. Incubations of the prodrugs in heat-inactivated fractions or buffer are conducted to differentiate enzymatic from non-enzymatic degradation. At specified time points (e.g., 0, 5, 10, 20, 30 and 60 min), samples are taken and terminated with an equal volume of cold acetonitrile containing a suitable internal standard (e.g., labetalol, tolbutamide). After quenching, the plates are centrifuged at 4000 g for 20 min. Aliquots (100 μL) are transferred to the analysis plate and diluted with 400 μL ultrapure water (Millipore) for LC-MSMS quantitation of prodrug concentrations, and in some cases creatine and/or creatinine. Chromatography columns (e.g., ACE 5 Phenyl, Phenomenex C18 Synergi Hydro-RP, Atlantis HILIC Silica) are selected based upon the lipophilicity and polarity of each prodrug. LC-MSMS platforms (e.g., Sciex API4000, Sciex API6500) are also selected based on the requirements of each prodrug. The metabolic stability of the compounds of the present disclosure of in mouse liver microsomal incubations is shown in Table 6 and human liver microsomal incubations is shown in Table 7.

Data set [2] can be described thus: In vitro release of d3-creatine and d3-creatinine from d3-prodrugs in mouse liver homogenate (MLH) incubations. Type of data set: in vitro ADME. The method, then:
For assessment of the ability of prodrugs to release creatine, and to release creatine preferentially to unwanted cyclization to creatinine, d3-labeled (deuterium labeled methyl group) prodrugs are incubated with liver homogenates (e.g., mouse, human) specially prepared to preserve N-reductase activity. The use of d3-labelled prodrugs is essential in order to distinguish prodrug-derived creatine (d3-creatine) from high concentrations of endogenous (non-labeled) creatine. Incubations (37° C.) are performed in 100 mM potassium phosphate buffer, pH 6.0 to optimize N-reductase activity. Prodrugs are tested at final concentrations of 20 μM and 200 μM. Approximately 4-5 mg of homogenate is used for each reaction. Co-factor (NADH) is included at a final concentration of 1 mM. Benzamidoxime (500 μM final concentration) is used as a positive control for N-reductase activity. N-reductase activity is confirmed by conversion of benzamidoxime into benzamidine. Negative controls include incubations without NADH (to assess NADH-independent prodrug cleavage) and incubations without liver homogenate (but with NAPD) to assess non-enzymatic prodrug cleavage under the conditions of the assay. […] Sample supernatants are analyzed by LC-MSMS (HILIC column) for determination of d3-prodrug, d3-creatine and d3-creatinine levels (Table 8).

The nature of data set [3]: Stability of prodrugs in simulated gastric fluid (SGF) with and without pepsin. Type of data set: in vitro ADME. The conditions noted are these: prodrug 10 μM, 37° C. The method, then: For determination of stability in simulated gastric fluid (SGF), prodrug (10 μM) is incubated in SGF (0.2% NaCl w/v, 0.7% HCl v/v, pH1.2) with and without addition of pepsin (3.2 g of purified pepsin per liter with an activity of 800-2500 units per mg of protein) at 37° C. At selected time points (e.g., 0, 15, 30, 60 and 120 min) 50 μL aliquots are removed and neutralized by addition of 50 μL of 0.1M sodium bicarbonate solution, followed by 150 μL of ice-cold acetonitrile. Samples are centrifuged at 4,000×g for 15 min at 4° C., and the supernatants are removed and analyzed for prodrug, creatine and creatinine concentrations by LC-MSMS (Table 2).

The nature of data set [4]: Stability in human plasma incubations. The class given is in vitro ADME. The method, then: (§2) To determine prodrug stability in mouse, rat, human or plasma from other species, prodrugs (10 μM) or positive controls (10 μM, propantheline or procaine) are incubated in undiluted plasma. Duplicate samples of prodrugs and controls are prepared and analyzed. Stock solutions of prodrugs are prepared in DMSO (10 mM) and diluted to 0.1 mM in pH 7.4 phosphate buffer to prepare spiking solutions. The prodrug spiking solutions are aliquoted (10 μL) into 96-well plates. Pre-warmed (37° C.) plasma (90 μL) is added to the wells designated for 5, 15, 30, 45 and 60 min time points; for t=0 min the quench solution (400 μL acetonitrile) is added directly to the prodrug containing well followed by 90 μL of pre-warmed plasma. At 5, 15, 30, 45 and 60 min 400 μL aliquots of acetonitrile are added to the wells to stop the reaction. After quenching, the plates are shaken for 10 min (600 rpm) and then centrifuged at 5500 g for 15 min. Aliquots (50 μL) are transferred to the analysis plate and diluted with 100 μL ultrapure water (Millipore) for LC-MSMS quantitation of prodrug concentrations, and in some cases creatine and/or creatinine. Chromatography columns (e.g., Atlantis HILIC Silica, Gemini C-18, Ultimate XB-C18) are selected based upon the lipophilicity and polarity of each prodrug. LC-MSMS platforms (e.g., Sciex API4000, Sciex API6500) are also selected based on the requirements of each prodrug. The stabilities of the compounds of the present disclosure (prodrugs) in mouse plasma incubations is shown in Table 4 and stability in human plasma incubations is shown in Table 5.

Data set [5] in a line: Stability in mouse plasma incubations. Type of data set: in vitro ADME. The method, then:
as §2

A short description of data set [6]: Metabolic stability in human liver microsomal incubations. To be noted: human liver microsomes. The class given is in vitro ADME. The procedure:
as §1
For orientation: Liver microsomes are vesicles of endoplasmic reticulum, rich in cytochrome P450 enzymes.

The nature of data set [7]: Stability of prodrugs in simulated intestinal fluid (SIF) with and without pancreatin. Type of data set: in vitro ADME. The conditions noted are these: prodrug 10 μM, 37° C. The method, then:
For determination of stability in simulated intestinal fluid (SIF), prodrug (10 μM) is incubated in SIF (0.68% KH2PO4 w/v, 0.86% NaOH v/v, pH 6.8) with and without addition of pancreatin (1% w/v) at 37° C. At selected time points (e.g., 0, 15, 30, 60 and 120 min) 50 μL aliquots are removed and the reactions are terminated by addition of 150 μL of ice-cold acetonitrile. Samples are centrifuged at 4,000×g for 15 min at 4° C., and the supernatants are removed and analyzed for prodrug, creatine and creatinine concentrations by LC-MSMS (Table 3).

For data set [8] the following is noted: athletes and body builders, 2-3 gm/day; cited from earlier work.
For data set [9] the following is noted: animals fed a diet containing up to 1% cyclocreatine; cited from earlier work.

As for `[2H]C([2H])([2H])N(CC(=O)OCCCCCCC)c1nc(=O)o[nH]1` [Compound E, heptyl 2-[(5-oxo-2H-1,2,4-oxadiazol-3-yl)-(trideuteriomethyl)amino]acetate], the melting point was in the range of 110 to 115 °C. Further, the “% Remaining (No NADPH) 30 min” value in data set [1] (mouse liver microsomes, no NADPH, 30 min, 10 μM) stood at 15.6%. For the same molecule, in [1] (mouse liver microsomes, with NADPH, 5 min, 10 μM), the “% Remaining (w/NADPH) 5 min” value is given as 89.1%. Further, the “% Remaining (w/NADPH) 30 min” value in data set [1] (mouse liver microsomes, with NADPH, 30 min, 10 μM) amounted to 26.0%. For the same molecule, the half-life at 10 μM in data set [1] (pH 7.4, mouse liver microsomes) amounted to 0.333 h. Also, the CLint scaled at 10 μM in data set [1] (pH 7.4, mouse liver microsomes, read-out: in vivo Clint) stood at 407 mL/min/kg. Moreover, the “Concentration (μM) at 120 min, Prodrug” value in [2] (Negative Control (No MLH)) was 240 µM. The “Concentration (μM) at 120 min, Prodrug” value in data set [2] (Prodrug + MLH + NADH) is 4.70 µM. Further, the half-life at 10 μM in data set [3] (simulated gastric fluid (SGF) with pepsin, SGF pH 1.2 with pepsin, read-out: T1/2 (min) (+) pepsin) is greater than 360 min. For the same molecule, in data set [3] (simulated gastric fluid (SGF) without pepsin, SGF pH 1.2 without pepsin, read-out: T1/2 (min) (−) pepsin), the half-life at 10 μM was greater than 360 min. In addition, in data set [4], the half-life at 10 μM came to 2.57 h. For the same molecule, in data set [4] (5 min, 10 μM), the “% Remaining 5 min” value came out at 101%. Besides, in [4] (1 h, 10 μM), the “% Remaining 60 min” value amounted to 75.6%. Moreover, the half-life at 10 μM in data set [5] is greater than 3 h. Further, in data set [5] (10 μM, 5 min), the “% Remaining 5 min” value is on record as 100%. In [5] (10 μM, 60 min), the “% Remaining 60 min” value amounted to 89.0%. In data set [6], the half-life at 10 μM is greater than 1.5 h. Moreover, the “% Remaining (No NADPH) 30 min” value in data set [6] (no NADPH, 30 min, 10 μM) is on record as 106%. Further, the CLint scaled at 10 μM in data set [6] (read-out: in vivo Clint) is less than 21 mL/min/kg. The “% Remaining (w/NADPH) 5 min” value in data set [6] (with NADPH, 5 min, 10 μM) turned out to be 103.8%. The “% Remaining (w/NADPH) 30 min” value in data set [6] (with NADPH, 30 min, 10 μM) is reported as 82.1%. In data set [7] (simulated intestinal fluid (SIF) with pancreatin, SIF pH 6.8, title: with pancreatin (1% w/v), read-out: T1/2 (min) (+) pepsin), the half-life at 10 μM was greater than 360 min. Further, the half-life at 10 μM in data set [7] (simulated intestinal fluid (SIF) without pancreatin, SIF pH 6.8, title: without pancreatin, read-out: T1/2 (min) (−) pepsin) is greater than 360 min.

For `CCOC(=O)CN(C)c1noc(=O)[nH]1` [Example 26, ethyl 2-[methyl-(5-oxo-4H-1,2,4-oxadiazol-3-yl)amino]acetate], the melting point was 120 to 123 °C.

Molecule `CN(CC(=O)O)c1noc(=O)[nH]1` [Example 27, 2-[methyl-(5-oxo-4H-1,2,4-oxadiazol-3-yl)amino]acetic acid] showed a melting point of 150 to 155 °C.

Molecule `[2H]C([2H])([2H])N(CC(=O)OC)c1nc(=O)o[nH]1` [Example 28, Step 3, methyl 2-[(5-oxo-2H-1,2,4-oxadiazol-3-yl)-(trideuteriomethyl)amino]acetate] registered a melting point of 120 to 125 °C.

In the case of `[2H]C([2H])([2H])N(CC(=O)O)c1nc(=O)o[nH]1` [Example 28, Step 4, 2-[(5-oxo-2H-1,2,4-oxadiazol-3-yl)-(trideuteriomethyl)amino]acetic acid], the melting point was 150 to 155 °C.

On to `[2H]C([2H])([2H])N(CC(=O)OC(C)C)c1nc(=O)o[nH]1` [Example 28, Step 5C, isopropyl 2-[(5-oxo-2H-1,2,4-oxadiazol-3-yl)-(trideuteriomethyl)amino]acetate], for which the melting point fell in the range of 143 to 145 °C.

`[2H]C([2H])([2H])N(CCO)c1nc(=O)o[nH]1` [Example 29, 3-[2-hydroxyethyl(trideuteriomethyl)amino]-2H-1,2,4-oxadiazol-5-one] gave a melting point of 98 to 104 °C.

In the case of `CN(CC(=O)O)C(=N)N.O` [creatine monohydrate], in data set [8], the adverse side effects entry was “without adverse side effects”.

`NC1=NCCN1CC(=O)O` [cyclocreatine]: the adverse effects result in [9] is “do not exhibit adverse effects”.

By melting point is commonly meant the temperature, or range, at which the solid turns liquid.
